In patent US20100249064A1, “METHODS AND COMPOSITIONS FOR TREATING DISEASES AND CONDITIONS INVOLVING HIGHER MOLECULAR WEIGHT HYALURONAN” (University of Chicago, priority 2007, published 2010):

Experiments:
Human pulmonary EC = assay: TER, Example 5; format: cell-based; conditions: for change in TER: human pulmonary EC, Example 5
Description: Measurement of TransEC Electrical Resistance (TER). EC were grown to confluence in polycarbonate wells containing evaporated gold microelectrodes, and TER measurements performed using an electrical cell-substrate impedance sensing system (Applied Biophysics, Troy, N.Y.) as previously described (Garcia et al., 2001). TER values from each microelectrode were pooled at discrete time points and plotted versus time as the mean±S.E.

[1] = test system: CD44s, CD44v10, S1P1 and S1P3 receptors in lipid rafts; assay: CD44 isoform / S1P receptor recruitment and association in lipid raft (CEM) fractions; format: cell-based, human; conditions: for CD44 isoform association with S1P receptors in lipid rafts: 100 nM HA, immunoprecipitation from lipid raft fractions
Description: Lipid Raft Isolation—Caveolin-enriched microdomain known as lipid rafts were isolated from human lung EC as described (Singleton and Bourguignon, 2004; Singleton et al., 2005). Materials insoluble in Triton X-100-insoluble were mixed with 0.6 ml of cold 60% Optiprep™ and then overlaid with 0.6 ml of 40%-20% Optiprep™. The resulting gradients were then centrifuged (35,000 rpm) in SW60 rotor for 12 h at 4° C. and different fractions were collected and analyzed. In some cases, different fractions were analyzed for total cholesterol content using a cholesterol assay kit (Amplex Red™, Invitrogen (Molecular Probes), Eugene, Oreg.).
Immunoprecipitation and Immunoblotting—Cellular materials associated within the 20% Optiprep™ fractions (lipid raft fraction) were incubated with IP buffer A (50 mM HEPES (pH 7.5), 150 mM NaCl, 20 mM MgCl2, 1% Nonidet P-40 (NP-40), 0.4 mM Na3VO4, 40 mM NaF, 50 μM okadaic acid, 0.2 mM phenylmethylsulfonyl fluoride, 1:250 dilution of Calbiochem protease inhibitor mixture 3) or IP buffer B (50 mM HEPES (pH 7.5), 150 mM NaCl, 20 mM MgCl2, 1% Triton X-100, 0.1% SDS, 0.4 mM Na3VO4, 40 mM NaF, 50 μM okadaic acid, 0.2 mM phenylmethylsulfonyl fluoride, 1:250 dilution of Calbiochem protease inhibitor mixture 3) as indicated. The samples were then immunoprecipitated with anti-S1P1 receptor or anti-S1P3 receptor IgG followed by SDS-PAGE in 4-15% polyacrylamide gels, and transfer onto Immobilon™ membranes. Development occurred using specific primary and secondary antibodies. Enhanced chemiluminescence (Amersham Biosciences) for visualization of immunoreactive bands then took place.
Determination of Complex Formation between S1P1 Receptor/CD44s and S1P3 Receptor/CD44v10—EC monolayers were serum-starved for one hour, then treated with High or Low MW HA (100 nM) (5-30 min.) and solubilized in IP buffer A (see above). Following immunoprecipitation with either rabbit anti-S1P1 receptor or mouse anti-S1P3 receptor antibody, the samples were subjected to SDS-PAGE in 4-15% polyacrylamide gels and transfer onto Immobilon™ membranes (Millipore Corp., Bedford, Mass.). Nonspecific sites were then blocked with 5% bovine serum albumin, and the blots were then incubated with either rat anti-CD44 (IM-7, common domain) antibody, rabbit anti-S1P1 antibody or mouse anti-S1P3 antibody followed by incubation with horseradish peroxidase (HRP)-labeled goat anti-rabbit, goat anti-mouse or goat anti-rat IgG. Enhanced chemiluminescence (Amersham Biosciences) for visualization of immunoreactive bands then took place.

HPMVEC = assay: EC migration (transwell); format: cell-based, human; conditions: 100 nM HA with or without 100 nM VEGF, or siRNA 48 hours then VEGF; 18 hours
Description: Determination of the role of HMW-HA/CD44 interactions in regulating hyaluronidase activity and angiogenesis in vitro. Human pulmonary microvascular EC (HPMVEC) (Cambrex), grown in EBM-2 complete medium (Cambrex) at 37° C. in a humidified atmosphere of 5% CO2, 95% air, with passages 6-10 used for experimentation was treated with or without 100 nM HMW-HA and/or 100 nM VEGF in the presence or absence of CD44 isoform-specific blocking antibodies (EMD Biosciences), siRNA (scramble, CD44, Hyal-1, Hyal-2, Hyal-3 or Hyal-4) and the potent hyaluronidase inhibitor, L-ascorbic acid 6-hexadecanoate (Botzki et al., 2004) (Sigma). […] Treated EC will either be analyzed for protein expression, hyaluronidase activity or VEGF-induced proliferation, migration or tube formation. […] Cells from the upper and lower chamber were quantitated using the CellTiter96™ MTS assay (Promega, San Luis Obispo, Calif.) and read at 492 nm. % migration was defined as the # of cells in the lower chamber […] the number of cells in both the upper and lower chamber. Each assay was set up in triplicate, repeated at least five times and analyzed statistically by Student's t test (with statistical significance set at P<0.05). […] The in vitro cell proliferation assay was analyzed by measuring increases in cell number using the CellTiter96™ MTS assay (Promega, San Luis Obispo, Calif.) and read at 492 nm. […]

hyaluronan [HMW-HA] was tested. Which “time at which HMW-HA-induced increase in TER reached plateau” value (Human pulmonary EC) did it give?
Its value is ~3 h.

What about the “protection from LPS-induced EC barrier disruption (TER)” value (Human pulmonary EC; HMW-HA (100 ng/ml), at 6 hours) of the same substance?
Its value is “protects from LPS-induced EC barrier disruption”.

What about the “change in TER” value (Human pulmonary EC; listed as High MW HA) of the same substance?
The value was “dose-dependent increase in TER”.

And the “recruitment of CD44s to the lipid raft fraction” value ([1]; 100 nM HA, 5, 15 or 30 min)?
The value was “rapidly (5 min.) recruit CD44s to the lipid raft fraction”.

And the “CD44 isoform association with S1P receptors in lipid rafts” value [1]?
The value was “induced CD44s association in lipid rafts with S1P1”.

What about the “EC migration (% Migration)” value (HPMVEC) of the same substance?
Its value is “inhibited VEGF-induced hyaluronidase expression, EC proliferation (A) and migration (B)”.

Which “change in TER” value (Human pulmonary EC; listed as low MW HA) does the source give for hyaluronan [LMW-HA, reference compound] here?
The value was “biphasic response ultimately leading to EC barrier disruption”.

And the “recruitment of CD44s to the lipid raft fraction” value ([1]; 100 nM HA, 5, 15 or 30 min)?
Its value is “rapidly (5 min.) recruit CD44s to the lipid raft fraction”.

What about the “recruitment of CD44v10 to the lipid raft fraction” value ([1]; 100 nM HA, 5, 15 or 30 min) of the same substance?
Its value is “robust but delayed recruitment of CD44v10 (after 15 min.)”.

What about the “CD44 isoform association with S1P receptors in lipid rafts” value [1] of the same substance?
The value was “induced an initial CD44s association with S1P1 which was followed by CD44v10 association with S1P3 receptor in lipid raft fractions”.

And the “EC migration (% Migration)” value (HPMVEC)?
Its value is “promotes EC proliferation and migration”.
